These results are taken from ChEMBL document CHEMBL4190376, “Mapping the Efficiency and Physicochemical Trajectories of Successful Optimizations” (J Med Chem, 2018).

≈ marks a conversion by molar mass, not a printed value.

Data set [1] is described as follows: Lipophilicity, log D of the compound at pH 7.4 by chromatographic method. The data set is classed as physicochemical. The note with it: buffer.
Another data set is described as follows: physchem. The note with it: aqueous.
Data set [2] is described as follows: Oral bioavailability in rat. The data set is classed as ADME, organism-based. The note with it: in vivo.
Data set [3] is described as follows: Ratio of drug level in rat liver to plasma. The format is ADME.
A short description of data set [4]: Oral bioavailability in human. The data set is classed as ADME, organism-based. The note with it: in vivo.
Data set [5] in a line: Solubility of the compound in FaSSIF. The format is physicochemical.
A short description of data set [6]: Solubility of the compound in pH 7.4 solution. The data set is classed as physicochemical.

In the case of `Cc1nnc(C(=O)NC(C)(C)c2nc(C(=O)NCc3ccc(F)cc3)c(O)c(=O)n2C)o1`, the chromatographic logD in data set [1] came out at 3.3.
Same read-out and setting: as for `C[C@@H]1CCO[C@H]2Cn3cc(C(=O)NCc4ccc(F)cc4F)c(=O)c(O)c3C(=O)N12` [DOLUTEGRAVIR], the figure is 3.7.
In the case of `CCC[C@H](NC(=O)[C@@H]1[C@H]2CCC[C@H]2CN1C(=O)[C@@H](NC(=O)[C@@H](NC(=O)c1cnccn1)C1CCCCC1)C(C)(C)C)C(=O)C(=O)NC1CC1`, the concentration in solution in the data set “physchem” (solubility) came to 4.7 µg/mL (≈ 6.91 µM).
In data set [2], `COC(=O)N[C@H](C(=O)N1CCC[C@H]1c1nc(-c2ccc(-c3ccc(-c4c[nH]c([C@@H]5CCCN5C(=O)[C@@H](NC(=O)OC)C(C)C)n4)cc3)cc2)c[nH]1)C(C)C` registered a bioavailability of 50%. In addition, the Kp in data set [3] was determined as 5.
In data set [1], `COc1cc2c(cc1Cc1cccc(Cl)c1F)c(=O)c(C(=O)O)cn2[C@H](CO)C(C)C` returned a chromatographic logD of 6.4.
The compound `Cc1nnc(C(C)C)n1C1C[C@@H]2CC[C@@H](C1)N2CC[C@H](NC(=O)C1CCC(F)(F)CC1)c1ccccc1` (some centres undefined) gave a bioavailability in data set [4] of 23%.
For the compound `CC1(C)CCC(CN2CCN(c3ccc(C(=O)NS(=O)(=O)c4ccc(NCC5CCOCC5)c([N+](=O)[O-])c4)c(Oc4cnc5[nH]ccc5c4)c3)CC2)=C(c2ccc(Cl)cc2)C1` [VENETOCLAX], the solubility turned out to be 11 µg/mL (≈ 12.7 µM) in data set [5] and 0.4 µg/mL (≈ 0.461 µM) in data set [6].
